Measured values: patent US10941136B2, “Quinazoline derivative or its salt and pharmaceutical composition comprising the same” (YUHAN CORPORATION, priority 2016, dated 2021)

Key:
Type in all cases: biochemical
[1] = molecular target: T1, PI3Kδ (p110δ/p85α)(h) (Homo sapiens, UniProt O00329); assay: PI3K-HTRF in vitro enzyme assay, PI3Kδ; conditions: enzyme 0.1 μg/ml
T1 construct: purchased Upstate (Millipore Co, Billerica, Mass., USA) #14˜604
Description: (§1) The compounds of the present invention were tested for the activity of phosphatidylinositol 3-kinase delta (PI3K) by using a PI3K enzyme-homogeneous time resolved fluorescence (PI3K-HTRF) kit, which is available under Upstate™ kit (Millipore Co, Billerica, Mass., USA). This kit system measures indirectly the amount of PIP3 produced via PI3K by detecting competitive inhibition of fluorescence complex formation.
(§2) There were used three kinds of buffer solutions, i.e., reaction buffer, stop solution, and detection solution. The reaction buffer was prepared by diluting Reaction Buffer (provided in Update™ kit) with distilled water 4 times and adding DTT to a concentration of 5 mM. The stop solution was prepared by combining STOP A and B Solutions (provided in Update™ kit) in a ratio of 3:1. The detection solution was prepared by combining Detection Solution A, B and C (provided in Update™ kit) in a ratio of 1:1:18. A substrate solution and an ATP solution were prepared by diluting the 1 mM PIP2 (phosphatidyl inositol 4,5 bi-phosphate) stock solution (provided in Update™ kit) and 10 mM ATP (Sigma-aldrich Co., St. Louis, Mo., USA) stock solution with the reaction buffer to concentrations of 20 μM and 40 μM, respectively. An enzyme solution was prepared by diluting PI3Kδ (#14˜604; Upstate™ kit) with the substrate solution to the concentration of 0.2 μg/ml (final reaction concentration: 0.1 μg/ml).
(§3) The test groups were prepared by dissolving each compound in 100% DMSO at 40× the final concentration and then diluting 10-fold with the reaction buffer. 5 μl of each diluted test group solution was transferred to a 384 well low flange white flat bottom microplate (#3572, Corning Life Sciences, Lowell, Mass., USA). We performed centrifuge (1 minute, 1000 rpm) and shaking for 2 minutes after every solution-adding step in this experiment. Next, 10 μl of the enzyme solution was added to each well. A mixed solution of the substrate solution (10 μl) plus 5 μl of the 100% DMSO diluted solution without test compound (i.e., 10% DMSO solution) was used as a negative control. And also, a mixed solution of enzyme solution (10 μl) plus 5 μl of the 100% DMSO diluted solution without test compound (i.e., 10% DMSO solution) was used as a positive control. This plate was pre-incubated for 10 minutes in a 25° C. incubator. After the pre-incubation, the phosphorylation reaction was induced by adding 5 μl of the ATP solution and the plate was incubated for 30 minutes in a 25° C. incubator. This enzyme reaction was stopped by 5 μl of the stop solution and then 5 μl of the detection solution was added thereto. To obtain enough fluorescence responses, the plate was incubated for 2 hours in a 25° C. incubator protected from light.
(§4) The time-resolved fluorescence resonance energy transfer (TR-FRET) rate was measured (emission wavelength: 665 nm, 620 nm, excitation wavelength: 313 nm) by using a Flexstation3 Micro plate reader (Molecular Devices, USA). TR-FRET Rate was calculated based on the Equation 1 and using these TR-FRET Rates, % inhibition rate of each compound was calculated based on the Equation 2. The IC50 values, i.e., the concentration of a test compound that inhibits 50% of PI3Kδ activity in vitro, are generated by Softmax program (Molecular Devices, USA). TR-FRET Rate=(Signal at 665 nm emission wavelength/Signal at 620 nm emission wavelength)×10000 <Equation 1> % Inhibition Rate=[(TR-FRET Rate of the test group−TR-FRET Rate of the positive control group)/(TR-FRET Rate of the negative control group−TR-FRET Rate of the positive control group)]×100 <Equation 2>

[2] = molecular target: T2, PI3Kα (p110α/p85α)(h) (Homo sapiens, UniProt P42336); assay: PI3K-HTRF in vitro enzyme assay, PI3Kα; conditions: enzyme 0.1 μg/ml
T2 construct: purchased Upstate (Millipore Co) #14-602
Description: as §1, §2, §3, §4
(§5) The compounds of the present invention were assayed for the activities of PI3K subtypes, i.e., PI3Kα, PI3Kβ and PI3Kγ, using the same procedures as in Experimental Example 1. […]

[3] = molecular target: T3, PI3Kγ (p120γ)(h) (Homo sapiens, UniProt P48736); assay: PI3K-HTRF in vitro enzyme assay, PI3Kγ; conditions: enzyme 0.4 μg/ml
T3 construct: purchased Upstate (Millipore Co) #14-558
Description: as §1, §2, §3, §4, §5

T2 sequence (P42336 whole entry): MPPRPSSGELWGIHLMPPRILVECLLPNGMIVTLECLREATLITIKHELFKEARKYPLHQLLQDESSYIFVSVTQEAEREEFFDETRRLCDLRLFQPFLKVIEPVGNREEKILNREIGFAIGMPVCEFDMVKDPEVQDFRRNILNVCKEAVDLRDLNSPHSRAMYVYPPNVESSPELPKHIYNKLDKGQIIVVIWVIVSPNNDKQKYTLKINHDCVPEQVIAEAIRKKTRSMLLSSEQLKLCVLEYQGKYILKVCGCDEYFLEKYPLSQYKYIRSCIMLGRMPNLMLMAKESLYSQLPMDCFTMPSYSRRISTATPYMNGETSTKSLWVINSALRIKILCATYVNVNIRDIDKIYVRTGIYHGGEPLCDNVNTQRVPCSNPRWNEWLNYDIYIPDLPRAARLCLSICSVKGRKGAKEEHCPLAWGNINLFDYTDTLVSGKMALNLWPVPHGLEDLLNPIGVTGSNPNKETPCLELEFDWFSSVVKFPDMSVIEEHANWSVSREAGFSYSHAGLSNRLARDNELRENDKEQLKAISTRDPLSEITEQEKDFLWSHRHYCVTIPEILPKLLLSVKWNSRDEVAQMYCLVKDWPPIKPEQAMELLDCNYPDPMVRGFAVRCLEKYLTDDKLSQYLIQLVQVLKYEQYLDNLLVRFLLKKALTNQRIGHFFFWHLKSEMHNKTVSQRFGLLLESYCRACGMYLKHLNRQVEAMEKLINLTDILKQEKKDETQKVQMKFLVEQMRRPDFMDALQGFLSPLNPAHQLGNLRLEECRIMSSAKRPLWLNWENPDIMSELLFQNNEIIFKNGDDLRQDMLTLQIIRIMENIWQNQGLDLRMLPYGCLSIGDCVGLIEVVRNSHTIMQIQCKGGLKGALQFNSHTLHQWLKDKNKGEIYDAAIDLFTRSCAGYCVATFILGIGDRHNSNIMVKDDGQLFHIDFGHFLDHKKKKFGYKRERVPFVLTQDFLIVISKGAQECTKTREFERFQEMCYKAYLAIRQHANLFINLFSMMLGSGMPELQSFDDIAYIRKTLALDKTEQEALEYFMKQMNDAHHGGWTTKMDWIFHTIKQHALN
T2 sequence (P27986 whole entry partner): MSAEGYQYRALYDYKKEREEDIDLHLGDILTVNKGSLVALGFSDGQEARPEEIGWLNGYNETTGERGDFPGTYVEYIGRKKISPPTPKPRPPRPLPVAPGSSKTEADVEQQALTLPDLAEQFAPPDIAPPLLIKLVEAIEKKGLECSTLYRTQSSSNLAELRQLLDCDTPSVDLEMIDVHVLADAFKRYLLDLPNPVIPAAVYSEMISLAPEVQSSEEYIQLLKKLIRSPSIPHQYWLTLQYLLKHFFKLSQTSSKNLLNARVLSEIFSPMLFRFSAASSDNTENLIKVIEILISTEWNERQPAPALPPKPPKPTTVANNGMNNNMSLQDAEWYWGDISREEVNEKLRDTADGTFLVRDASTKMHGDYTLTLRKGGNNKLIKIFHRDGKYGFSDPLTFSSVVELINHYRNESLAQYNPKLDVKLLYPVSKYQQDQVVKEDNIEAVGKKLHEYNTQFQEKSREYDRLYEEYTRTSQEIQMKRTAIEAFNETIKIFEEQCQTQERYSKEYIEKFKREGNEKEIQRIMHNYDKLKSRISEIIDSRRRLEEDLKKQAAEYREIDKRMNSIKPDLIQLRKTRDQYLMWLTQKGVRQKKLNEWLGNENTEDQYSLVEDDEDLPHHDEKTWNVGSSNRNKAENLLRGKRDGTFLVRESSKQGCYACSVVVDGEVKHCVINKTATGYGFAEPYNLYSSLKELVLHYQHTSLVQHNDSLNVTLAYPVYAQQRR
T3 sequence (P48736 whole entry): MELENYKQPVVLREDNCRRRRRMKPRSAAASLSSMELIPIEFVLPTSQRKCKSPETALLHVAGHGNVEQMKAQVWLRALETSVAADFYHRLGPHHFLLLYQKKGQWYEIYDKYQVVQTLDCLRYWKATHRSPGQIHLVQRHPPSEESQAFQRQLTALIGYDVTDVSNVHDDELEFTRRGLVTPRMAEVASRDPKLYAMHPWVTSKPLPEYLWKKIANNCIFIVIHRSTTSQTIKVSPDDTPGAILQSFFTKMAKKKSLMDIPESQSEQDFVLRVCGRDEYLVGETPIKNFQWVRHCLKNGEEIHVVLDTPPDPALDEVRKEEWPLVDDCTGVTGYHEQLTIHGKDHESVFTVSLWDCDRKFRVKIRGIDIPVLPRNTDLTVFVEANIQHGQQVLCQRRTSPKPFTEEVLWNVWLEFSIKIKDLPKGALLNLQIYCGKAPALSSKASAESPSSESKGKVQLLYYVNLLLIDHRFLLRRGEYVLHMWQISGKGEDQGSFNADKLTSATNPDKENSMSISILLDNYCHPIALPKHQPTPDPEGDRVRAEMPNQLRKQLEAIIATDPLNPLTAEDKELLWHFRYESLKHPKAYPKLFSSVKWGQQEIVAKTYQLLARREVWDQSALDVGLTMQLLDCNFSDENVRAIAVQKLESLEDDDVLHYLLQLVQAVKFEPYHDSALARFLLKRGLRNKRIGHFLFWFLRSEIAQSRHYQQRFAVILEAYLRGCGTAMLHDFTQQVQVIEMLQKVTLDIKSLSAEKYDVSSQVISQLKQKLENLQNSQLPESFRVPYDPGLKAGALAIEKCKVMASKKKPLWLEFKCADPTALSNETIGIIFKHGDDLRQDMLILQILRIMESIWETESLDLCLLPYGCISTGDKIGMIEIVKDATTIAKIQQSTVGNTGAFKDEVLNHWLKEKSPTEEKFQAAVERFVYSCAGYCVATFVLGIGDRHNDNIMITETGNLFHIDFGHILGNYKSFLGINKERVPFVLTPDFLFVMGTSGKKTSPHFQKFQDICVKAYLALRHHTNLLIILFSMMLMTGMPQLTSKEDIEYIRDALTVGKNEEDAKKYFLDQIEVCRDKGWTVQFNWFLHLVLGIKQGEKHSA
T1 sequence (O00329 whole entry): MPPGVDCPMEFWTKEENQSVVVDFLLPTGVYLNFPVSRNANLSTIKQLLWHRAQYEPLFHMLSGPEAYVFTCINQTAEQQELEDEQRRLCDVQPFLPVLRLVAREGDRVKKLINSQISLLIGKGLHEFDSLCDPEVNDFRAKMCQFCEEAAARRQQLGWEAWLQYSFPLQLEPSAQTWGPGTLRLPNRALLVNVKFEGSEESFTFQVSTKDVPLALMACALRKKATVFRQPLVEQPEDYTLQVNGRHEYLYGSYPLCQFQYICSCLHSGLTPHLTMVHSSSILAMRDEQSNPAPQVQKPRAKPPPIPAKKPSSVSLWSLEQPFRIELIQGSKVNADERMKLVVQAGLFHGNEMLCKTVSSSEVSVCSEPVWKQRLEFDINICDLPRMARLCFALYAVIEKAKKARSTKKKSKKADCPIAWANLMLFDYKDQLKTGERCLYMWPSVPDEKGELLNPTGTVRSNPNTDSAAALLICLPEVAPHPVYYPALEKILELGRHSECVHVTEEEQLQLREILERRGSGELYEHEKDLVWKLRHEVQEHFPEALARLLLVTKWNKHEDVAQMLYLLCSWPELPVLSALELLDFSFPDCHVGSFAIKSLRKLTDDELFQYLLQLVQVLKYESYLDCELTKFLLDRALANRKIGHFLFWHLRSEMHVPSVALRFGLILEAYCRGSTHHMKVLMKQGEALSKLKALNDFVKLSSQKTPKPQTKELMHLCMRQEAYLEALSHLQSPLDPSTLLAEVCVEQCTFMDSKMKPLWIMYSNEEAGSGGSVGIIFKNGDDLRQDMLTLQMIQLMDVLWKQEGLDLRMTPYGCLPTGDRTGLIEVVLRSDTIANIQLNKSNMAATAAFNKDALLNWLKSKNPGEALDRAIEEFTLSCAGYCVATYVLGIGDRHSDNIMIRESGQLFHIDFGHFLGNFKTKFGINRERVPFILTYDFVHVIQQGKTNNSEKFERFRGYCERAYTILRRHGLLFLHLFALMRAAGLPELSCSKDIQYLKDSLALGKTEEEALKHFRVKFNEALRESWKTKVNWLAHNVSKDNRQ
T1 sequence (P27986 whole entry partner): as the sequence (P27986 whole entry partner) above

| Structure (SMILES) | IC50 [1] [nM] | IC50 [2] [nM] | IC50 [3] [nM] |
| --- | --- | --- | --- |
| C[C@H](Nc1ncnc2ccc(C#N)cc12)c1nc2cccc(-c3cncnc3)c2c(=O)n1-c1ccccc1 [Example 1, (S)-4-((1-(4-oxo-3-phenyl-5-(pyrimidin-5-yl)-3,4-dihydroquinazolin-2-yl)ethyl)amino)quinazoline-6-carbonitrile] | 20 | 3550 | 922 |
| Cc1ncc(-c2cccc3nc([C@H](C)Nc4ncnc5ccc(C#N)cc45)n(-c4ccccc4)c(=O)c23)cn1 [Example 3, (S)-4-((1-(5-(2-methylpyrimidin-5-yl)-4-oxo-3-phenyl-3,4-dihydroquinazolin-2-yl)ethyl)amino)quinazoline-6-carbonitrile] | 22 | 1770 | 262 |
| CC[C@H](Nc1ncnc2ccc(C#N)cc12)c1nc2cccc(-c3cncnc3)c2c(=O)n1-c1ccccc1 [Example 4, (S)-4-((1-(4-oxo-3-phenyl-5-(pyrimidin-5-yl)-3,4-dihydroquinazolin-2-yl)propyl)amino)quinazoline-6-carbonitrile] | 14 | 2210 | 3630 |
| CC[C@H](Nc1ncnc2ccc(C#N)cc12)c1nc2cccc(-c3cnc(OC)nc3)c2c(=O)n1-c1ccccc1 [Example 5, (S)-4-((1-(5-(2-methoxypyrimidin-5-yl)-4-oxo-3-phenyl-3,4-dihydroquinazolin-2-yl)propyl)amino)quinazoline-6-carbonitrile] | 14 | 1010 | 2150 |
| CCOc1ncc(-c2cccc3nc([C@H](CC)Nc4ncnc5ccc(C#N)cc45)n(-c4ccccc4)c(=O)c23)cn1 [Example 6, (S)-4-((1-(5-(2-ethoxypyrimidin-5-yl)-4-oxo-3-phenyl-3,4-dihydroquinazolin-2-yl)propyl)amino)quinazoline-6-carbonitrile] | 15 | 1510 | 1960 |
| CC[C@H](Nc1ncnc2ccc(C#N)cc12)c1nc2cccc(-c3cnc(N(C)C)nc3)c2c(=O)n1-c1ccccc1 [Example 7, (S)-4-((1-(5-(2-(dimethylamino)pyrimidin-5-yl)-4-oxo-3-phenyl-3,4-dihydroquinazolin-2-yl)propyl)amino)quinazoline-6-carbonitrile] | 20 | 638 | 747 |
| CC[C@H](Nc1ncnc2ccc(C#N)cc12)c1nc2cccc(-c3cnc(SC)nc3)c2c(=O)n1-c1ccccc1 [Example 8, (S)-4-((1-(5-(2-(methylsulfanyl)pyrimidin-5-yl)-4-oxo-3-phenyl-3,4-dihydroquinazolin-2-yl)propyl)amino)quinazoline-6-carbonitrile] | 18 | 787 | 1720 |
| CCC[C@H](Nc1ncnc2ccc(C#N)cc12)c1nc2cccc(-c3cnc(C)nc3)c2c(=O)n1-c1ccccc1 [Example 9, (S)-4-((1-(5-(2-methylpyrimidin-5-yl)-4-oxo-3-phenyl-3,4-dihydroquinazolin-2-yl)butyl)amino)quinazoline-6-carbonitrile] | 18 | 2850 | 1150 |
| CC(C)[C@H](Nc1ncnc2ccc(C#N)cc12)c1nc2cccc(-c3cnc(N)nc3)c2c(=O)n1-c1ccccc1 [Example 13, (S)-4-((1-(5-(2-aminopyrimidin-5-yl)-4-oxo-3-phenyl-3,4-dihydroquinazolin-2-yl)-2-methylpropyl)amino)quinazoline-6-carbonitrile] | 24 | 1480 | 2890 |
| N#Cc1ccc2ncnc(N[C@H](c3nc4cccc(-c5cncnc5)c4c(=O)n3-c3ccccc3)C3CC3)c2c1 [Example 14, (S)-4-((cyclopropyl(4-oxo-3-phenyl-5-(pyrimidin-5-yl)-3,4-dihydroquinazolin-2-yl)methyl)amino)quinazoline-6-carbonitrile] | 3 | 841 | 537 |
| COc1ncc(-c2cccc3nc([C@@H](Nc4ncnc5ccc(C#N)cc45)C4CC4)n(-c4ccccc4)c(=O)c23)cn1 [Example 15, (S)-4-((cyclopropyl(5-(2-methoxypyrimidin-5-yl)-4-oxo-3-phenyl-3,4-dihydroquinazolin-2-yl)methyl)amino)quinazoline-6-carbonitrile] | 17 | 751 | 364 |
| CCOc1ncc(-c2cccc3nc([C@@H](Nc4ncnc5ccc(C#N)cc45)C4CC4)n(-c4ccccc4)c(=O)c23)cn1 [Example 16, (S)-4-((cyclopropyl(5-(2-ethoxypyrimidin-5-yl)-4-oxo-3-phenyl-3,4-dihydroquinazolin-2-yl)methyl)amino)quinazoline-6-carbonitrile] | 4 | 1290 | 434 |
| C[C@H](Nc1ncnc2cccc(F)c12)c1nc2cccc(-c3cncnc3)c2c(=O)n1-c1ccccc1 [Example 22, (S)-2-(1-((5-fluoroquinazolin-4-yl)amino)ethyl)-3-phenyl-5-(pyrimidin-5-yl)quinazolin-4(3H)-one] | 30 |  | 5940 |
| C[C@H](Nc1ncnc2cccc(F)c12)c1nc2cccc(-c3cnc(N)nc3)c2c(=O)n1-c1ccccc1 [Example 23, (S)-5-(2-aminopyrimidin-5-yl)-2-(1-((5-fluoroquinazolin-4-yl)amino)ethyl)-3-phenylquinazolin-4(3H)-one] | 19 | 2730 | 1390 |
| CC[C@H](Nc1ncnc2cccc(F)c12)c1nc2cccc(-c3cncnc3)c2c(=O)n1-c1ccccc1 [Example 24, (S)-2-(1-((5-fluoroquinazolin-4-yl)amino)propyl)-3-phenyl-5-(pyrimidin-5-yl)quinazolin-4(3H)-one] | 17 | 8120 | 4280 |
| CC[C@H](Nc1ncnc2cccc(F)c12)c1nc2cccc(-c3cnc(F)nc3)c2c(=O)n1-c1ccccc1 [Example 26, (S)-5-(2-fluoropyrimidin-5-yl)-2-(1-((5-fluoroquinazolin-4-yl)amino)propyl)-3-phenylquinazolin-4(3H)-one] | 17 | 4470 | 3420 |
| CC[C@H](Nc1ncnc2cccc(F)c12)c1nc2cccc(-c3cnc(C)nc3)c2c(=O)n1-c1ccccc1 [Example 27, (S)-2-(1-((5-fluoroquinazolin-4-yl)amino)propyl)-5-(2-methylpyrimidin-5-yl)-3-phenylquinazolin-4(3H)-one] | 27 | 7260 | 4980 |
| CC(C)[C@H](Nc1ncnc2cccc(F)c12)c1nc2cccc(-c3cncnc3)c2c(=O)n1-c1ccccc1 [Example 28, (S)-2-(1-((5-fluoroquinazolin-4-yl)amino)-2-methylpropyl)-3-phenyl-5-(pyrimidin-5-yl)quinazolin-4(3H)-one] | 19 |  |  |
| CC(C)[C@H](Nc1ncnc2cccc(F)c12)c1cc2cccc(-c3cncnc3)c2c(=O)n1-c1ccccc1 [Example 45, (S)-3-(1-((5-fluoroquinazolin-4-yl)amino)-2-methylpropyl)-2-phenyl-8-(pyrimidin-5-yl)isoquinolin-1(2H)-one] | 17 |  | > 1000 |
| Cc1ncc(-c2cccc3cc([C@@H](Nc4ncnc5cccc(F)c45)C(C)C)n(-c4ccccc4)c(=O)c23)cn1 [Example 47, (S)-3-(1-((5-fluoroquinazolin-4-yl)amino)-2-methylpropyl)-8-(2-methylpyrimidin-5-yl)-2-phenylisoquinolin-1(2H)-one] | 23 |  | > 1000 |
